{"source": "patent US8084020B2", "about": "“Use of anti-CD1 antibodies for the modulation of immune responses” (Beth Israel Deaconess Medical Center, priority 2002, dated 2011)", "molecules": {"B1": {"name": "IL-4: cytokine (protein, UniProt P05112 25-153, looked up)", "Interleukin-4": "HKCDITLQEIIKTLNSLTEQKTLCTELTVTDIFAASKNTTEKETFCRAATVLRQFYSHHEKDTRCLGATAQQFHRHKQLIRFLKRLDRNLWGLAGLNSCPVKEANQSTLENFLERLKTIMREKYSKCSS"}}, "key": {"[1]": {"system": "adhered PBMC", "experiment": "IL-1α release from adhered PBMC", "type": "cell-based, human", "excerpt": "(§1) PBMC were obtained from healthy adult volunteers of both sexes on Ficoll Hypaque density gradients and cultured in complete medium consisting of RPMI 1640 and 10% FBS. THP-1 is a human monocytic leukaemia cell line. Compared to other human myeloid cell lines, such as HL-60 and U937, THP-1 cells express CD1d on their surfaces. Because of this characteristic, the THP-1 cell line provides a valuable model for studying the mechanism involved in CD1d crosslinking by measuring the IL-12 and phospho kinases in the cell. THP-1 cells was cultured in complete medium consisting of RPMI 1640 and 10% FBS.\n(§2) For the activation of these target cells, an anti-CD1 antibody was bound to a plate and then incubated with the cells. In particular, […] were coated with 10 μg/ml protein G overnight at 4° C. Wells were washed with PBS and blocked with BSA at room temperature for four hours. Antibody (10 μg/ml) was added to each well for four hours at room temperature. The wells were washed again to remove the unbound antibodies, and 1.5×10^5 to 2×10^5 cells were added to each well in RPMI 1640 culture media."}, "[2]": {"system": "antigen presenting cells", "experiment": "Induction of IL-12 production by antigen presenting cells / monocytes in vitro", "type": "cell-based", "excerpt": "as §1, §2\n(§3) To measure the increase induction of IL-12 production by an anti-CD1 antibody, the concentrations of P40 and P70 forms of IL-12 in cultured supernatants were measured with a standard sandwich ELISA technique using combinations of monoclonal antibodies to different epitopes of each cytokine (FIGS. 4-22)."}, "[3]": {"system": "THP-1 cells", "experiment": "IL-12 p40 release from THP-1 cells (ELISA)", "type": "cell-based, human", "conditions": "FIG. 14; with and without PMA (0.1 ng/ml); 2% serum media; IFNγ (20 ng/ml); two days", "excerpt": "as §1\nas §2, with “The wells were washed again to remove the unbound antibodies, and 1.5×10^5 to 2×10^5 cells were added to each well in RPMI 1640 culture media.” left out\nas §3"}}, "data": [{"molecule": "lipopolysaccharide [LPS]", "values": [{"measurement": "induction of IL-1 relative to 51.1 anti-CD1 antibody", "setting": "[1]", "result": "more potent inducer of IL-1"}, {"measurement": "levels of IL-12 stimulated relative to 51.1 anti-CD1 antibody", "setting": "[2]", "result": "comparable or lower levels of IL-12"}]}, {"molecule": "CCCCCCCCCCCCCC(=O)O[C@@H]1[C@@H](C)[C@@]2(O)[C@@H](C=C(CO)C[C@]3(O)C(=O)C(C)=C[C@@H]23)[C@@H]2C(C)(C)[C@]12OC(C)=O", "note": "[PMA]", "values": [{"measurement": "effect of PMA on IL-12 p40 released from THP-1 cells", "setting": "[3]", "result": "no significant differences"}]}, {"molecule": "IFNγ: cytokine", "values": [{"measurement": "effect of cytokine on anti-CD1 antibody enhanced production of IL-12", "setting": "[2]", "result": "increased the ability of anti-CD1 antibodies to enhance production of IL-12"}]}, {"molecule": "B1", "values": [{"measurement": "effect of cytokine on anti-CD1 antibody enhanced production of IL-12", "setting": "[2]", "result": "increased the ability of anti-CD1 antibodies to enhance production of IL-12"}]}]}
